# Laboratory results taken from US20170231929A1, “METHOD FOR ENHANCING IMMUNE CELL FUNCTION AND METHOD FOR ASSESSING IMMUNE CELL MULTIFUNCTIONALITY” (NATIONAL UNIVERSITY CORPORATION OKAYAMA UNIVERSITY, priority 2014, published 2017).
# Several values for one entry are separate records, joined by “and”; a condition that tells them apart may be missing. Equal values may be shown once. Entries after “also recorded” stand apart in the source; their conditions may differ.
# System: CD8^+T cells
# Test: Multifunctionality of CD8^+T cells of healthy subjects after metformin treatment of PBMC (flow cytometer)
# Format: cell-based, human
# Method: 1. Peripheral blood was obtained from a test subject, and PBMC was separated by a density-gradient centrifugation using a lymphocyte-separating reagent Ficoll-Paque® (GE Healthcare). 3 mL of Ficoll-Paque® was dispensed in a 15-mL tube. 8 mL of the peripheral blood was gently placed on the reagent. At this time, care should be taken not to mix Ficoll-Paque® with the peripheral blood. Centrifugation was performed at 400 g for 30 minutes, thereby separating PBMC. 2. The separated PBMC was preserved in a −150° C. freezer or liquid nitrogen using Bambang Car cell preservation liquid by adjusting the cell number to 2.0×10^6 cell/tube. 3. In the test, the thawed PBMC was cultured for 1 to 10 hours in the presence or absence of […]. The culture was performed using a 24-well plate, and the cell number was adjusted to about 5.0×10^5 cell/well. 4. The cells were collected after 1 to 10 hours, washed with medium, and cultured in the presence of a cell activation reagent (potent nanomolar activator of protein kinase C (PMA, 50 ng/mL), ionomycin (1 μM)) for 6 hours, thereby non-specifically stimulating T cells. At this time, BD Gorgi Stop™ was added to keep the produced cytokines inside the cells. 5. The cells were isolated and washed twice with a cell-staining buffer. First, staining of CD8, PD-1, Tim-3, which are molecules expressed on the T cell surface, was performed. In the staining, a staining buffer was added in an amount of 50 μL per sample. The culture was performed at 4° C. for 30 minutes. 6. The cells were collected and washed twice with a cell-staining buffer. 500 μL of BD Cytofix/Cytoperm was added and cultured at 4° C. for 30 minutes. 7. The cells were collected and washed twice with BD Perm/Wash™. Staining of cytokines IL-2, TNFα, and IFNγ was performed. In the staining, BD Perm/Wash™ was added in an amount of 50 μL per sample. The culture was performed at 4° C. for 30 minutes. 8. The cells were collected and washed twice with BD Perm/Wash™, and 200 μL of BD Perm/Wash™ was added. 9. Analysis was performed using a FACSCanto™ II flow cytometer (Becton, Dickinson and Company).
# Among the PBMC treated with PMA/ionomycin in the method shown in (2) above, first, a gate was applied to CD8^+T cells using a FACSCanto™ II flow cytometer (Becton, Dickinson and Company), and then […] were removed by FSC-A and FSC-H. Using parameters FSC-A and SSC-A, a gate was applied to a lymphocyte group, thereby analyzing expression of PD-1 and Tim-3. Further, intracellular cytokines IFNγ, TNFα, and IL-2 were stained, and multifunctionality of CD8^+T cells contained in the PBMC was analyzed (FIG. 1).
# PBMC obtained from healthy subjects (N=10) was cultured for an hour in the presence or absence of metformin by the method shown in (2). After metformin was removed, the PBMC was subjected to stimulating culture with PMA/ionomycin for 6 hours by the method shown in (3). Among the resulting PBMC, CD8^+T cells capable of simultaneously producing three kinds of cytokines, i.e., IFNγ, TNFα, and IL-2, were detected. The CD8^+T cells untreated with metformin were determined to be 0.11%, and the CD8^+T cells treated with metformin were determined to be 0.09% (FIG. 2). Accordingly, it was judged that multifunctionality of CD8^+T cells was not increased by a metformin treatment in healthy subjects.
# In the PBMC of healthy subjects treated as above, the ratios of CD8^+T cells producing three kinds of cytokines (IFNγ/TNFα/IL-2), CD8^+T cells producing two kinds of cytokines (IFNγ/TNFα or IFNγ/IL-2), and CD8^+T cells producing one kind of cytokine (IFNγ) to the entire CD8^+T cells were calculated and shown in Table 1. The calculation results were compared between the metformin-untreated group (control) and the metformin-treated group (metformin).
# [1] = PD-1+, Tim-3+, Healthy Subjects, subjects/total
# [2] = PD-1+, Tim-3−, Healthy Subjects, subjects/total
# [3] = PD-1−, Tim-3+, Healthy Subjects, subjects/total
# [4] = PD-1−, Tim-3−, Healthy Subjects, subjects/total
# [5] = Total CD8T, Healthy Subjects, subjects/total
# [6] = healthy subjects, PBMC cultured an hour with metformin, then PMA/ionomycin 6 hours, each table row = one subject
# [7] = healthy subjects, each table row = one subject
# [8] = total CD8^+T cells, healthy subjects
smiles,measurement,setting,value
CN(C)C(=N)N=C(N)N [metformin],"Decrease, IFNγ 1-cytokine-producing cell",[1],4/10
same,"Decrease, IFNγ/IL-2 2-cytokine-producing cell",[1],4/10
same,"Decrease, IFNγ/TNFα 2-cytokine-producing cell",[1],6/10
same,"Decrease, IFNγ/TNFα/IL2 3-cytokine-producing cell",[1],1/10
same,"Increase, IFNγ 1-cytokine-producing cell",[1],6/10
same,"Increase, IFNγ/IL-2 2-cytokine-producing cell",[1],2/10
same,"Increase, IFNγ/TNFα 2-cytokine-producing cell",[1],3/10
same,"Increase, IFNγ/TNFα/IL2 3-cytokine-producing cell",[1],3/10 and 5/10
same,"No Change, IFNγ 1-cytokine-producing cell",[1],0/10
same,"No Change, IFNγ/IL-2 2-cytokine-producing cell",[1],4/10
same,"No Change, IFNγ/TNFα 2-cytokine-producing cell",[1],1/10
same,"No Change, IFNγ/TNFα/IL2 3-cytokine-producing cell",[1],4/10
same,"Decrease, IFNγ 1-cytokine-producing cell",[2],5/10
same,"Decrease, IFNγ/IL-2 2-cytokine-producing cell",[2],6/10
same,"Decrease, IFNγ/TNFα 2-cytokine-producing cell",[2],4/10
same,"Decrease, IFNγ/TNFα/IL2 3-cytokine-producing cell",[2],5/10
same,"Increase, IFNγ 1-cytokine-producing cell",[2],2/10
same,"Increase, IFNγ/IL-2 2-cytokine-producing cell",[2],3/10
same,"Increase, IFNγ/TNFα 2-cytokine-producing cell",[2],3/10
same,"Increase, IFNγ/TNFα/IL2 3-cytokine-producing cell",[2],3/10
same,"No Change, IFNγ 1-cytokine-producing cell",[2],3/10
same,"No Change, IFNγ/IL-2 2-cytokine-producing cell",[2],1/10
same,"No Change, IFNγ/TNFα 2-cytokine-producing cell",[2],3/10
same,"No Change, IFNγ/TNFα/IL2 3-cytokine-producing cell",[2],2/10
same,"Decrease, IFNγ 1-cytokine-producing cell",[3],6/10
same,"Decrease, IFNγ/IL-2 2-cytokine-producing cell",[3],4/10
same,"Decrease, IFNγ/TNFα 2-cytokine-producing cell",[3],5/10
same,"Decrease, IFNγ/TNFα/IL2 3-cytokine-producing cell",[3],3/10
same,"Increase, IFNγ 1-cytokine-producing cell",[3],2/10
same,"Increase, IFNγ/IL-2 2-cytokine-producing cell",[3],1/10
same,"Increase, IFNγ/TNFα 2-cytokine-producing cell",[3],3/10
same,"Increase, IFNγ/TNFα/IL2 3-cytokine-producing cell",[3],1/10
same,"No Change, IFNγ 1-cytokine-producing cell",[3],2/10
same,"No Change, IFNγ/IL-2 2-cytokine-producing cell",[3],5/10
same,"No Change, IFNγ/TNFα 2-cytokine-producing cell",[3],2/10
same,"No Change, IFNγ/TNFα/IL2 3-cytokine-producing cell",[3],6/10
same,"Decrease, IFNγ 1-cytokine-producing cell",[4],4/10
same,"Decrease, IFNγ/IL-2 2-cytokine-producing cell",[4],5/10
same,"Decrease, IFNγ/TNFα 2-cytokine-producing cell",[4],4/10
same,"Decrease, IFNγ/TNFα/IL2 3-cytokine-producing cell",[4],7/10
same,"Increase, IFNγ 1-cytokine-producing cell",[4],2/10
same,"Increase, IFNγ/IL-2 2-cytokine-producing cell",[4],4/10
same,"Increase, IFNγ/TNFα 2-cytokine-producing cell",[4],4/10
same,"Increase, IFNγ/TNFα/IL2 3-cytokine-producing cell",[4],2/10
same,"No Change, IFNγ 1-cytokine-producing cell",[4],4/10
same,"No Change, IFNγ/IL-2 2-cytokine-producing cell",[4],1/10
same,"No Change, IFNγ/TNFα 2-cytokine-producing cell",[4],2/10
same,"No Change, IFNγ/TNFα/IL2 3-cytokine-producing cell",[4],1/10
same,"Increase + No Change, IFNγ/TNFα/IL2, share of subjects","Total CD8T, Healthy Subjects",30%
same,"Decrease, IFNγ 1-cytokine-producing cell",[5],2/10
same,"Decrease, IFNγ/IL-2 2-cytokine-producing cell",[5],6/10
same,"Decrease, IFNγ/TNFα 2-cytokine-producing cell",[5],5/10
same,"Decrease, IFNγ/TNFα/IL2 3-cytokine-producing cell",[5],7/10
same,"Increase + No Change, IFNγ/TNFα/IL2",[5],3/10
same,"Increase, IFNγ 1-cytokine-producing cell",[5],4/10
same,"Increase, IFNγ/IL-2 2-cytokine-producing cell",[5],3/10
same,"Increase, IFNγ/TNFα 2-cytokine-producing cell",[5],3/10
same,"Increase, IFNγ/TNFα/IL2 3-cytokine-producing cell",[5],0/10
same,"No Change, IFNγ 1-cytokine-producing cell",[5],4/10
same,"No Change, IFNγ/IL-2 2-cytokine-producing cell",[5],1/10
same,"No Change, IFNγ/TNFα 2-cytokine-producing cell",[5],2/10
same,"No Change, IFNγ/TNFα/IL2 3-cytokine-producing cell",[5],3/10
same,"CD8^+T cells capable of simultaneously producing IFNγ, TNFα and IL-2, treated with metformin","healthy subjects, FIG. 2, untreated with metformin 0.11%",0.09%
same,"ratio of CD8^+T cells producing one kind of cytokine (IFNγ) to the entire CD8^+T cells, metformin",[6],13.18% and 16.70% and 8.18% and 11.64% and 4.62% and 1.68% and 6.23% and 0.95% and 1.87% and 12.00%
same,"ratio of CD8^+T cells producing two kinds of cytokines (IFNγ/IL-2) to the entire CD8^+T cells, metformin",[6],0.47% and 0.48% and 0.71% and 0.28% and 0.15% and 0.03% and 0.21% and 0.05% and 0.14% and 0.24%
same,"ratio of CD8^+T cells producing two kinds of cytokines (IFNγ/TNFα) to the entire CD8^+T cells, metformin",[6],31.38% and 3.54% and 32.26% and 11.52% and 16.84% and 1.50% and 11.17% and 0.12% and 1.08% and 3.98%
same,change of IFNγ producing CD8^+T cell ratio by metformin treatment vs control,[7],→ (other cases with no significant differences); also recorded: ↑ (a 10% or more increase by a metformin treatment); also recorded: ↓ (a 10% or more decrease by a metformin treatment)
same,change of IFNγ/IL-2 producing CD8^+T cell ratio by metformin treatment vs control,[7],↓ (a 10% or more decrease by a metformin treatment); also recorded: ↑ (a 10% or more increase by a metformin treatment); also recorded: → (other cases with no significant differences)
same,change of IFNγ/TNFα producing CD8^+T cell ratio by metformin treatment vs control,[7],↓ (a 10% or more decrease by a metformin treatment); also recorded: ↑ (a 10% or more increase by a metformin treatment); also recorded: → (other cases with no significant differences)
same,multifunctionality of CD8^+T cells by a metformin treatment,"healthy subjects, judgement from FIG. 2",not increased
same,"decrease in multifunctionality (three kinds of cytokines), share of subjects",[8],70%
same,"increase in multifunctionality (three kinds of cytokines), share of subjects",[8],0%
